Results as given in patent US8192962B2, “Processes for detecting toxic substances” (Daikin Industries, Ltd., priority 2001, dated 2012).

System: Unknown protein yeast genes
Experiment: DNA chip mRNA expression in yeast, unknown protein yeast genes (Table 1)
Type: cell-based, Saccharomyces cerevisiae S288C
How it was run: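 Untreated cultures served as reference for log-phase S288C yeast given a growth-inhibiting, non-lethal toxicant dose for 2 h at 25° C. in YPD. Gene expression was measured on a whole-genome DNA chip from Cy3/Cy5-labeled cDNA.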

CCCCC[C@H](O)CC(=O)CCc1ccc(O)c(OC)c1 [(13), gingerol]
The level of expressed mRNA in the presence of chemical substance/The level of expressed mRNA in the absence of chemical substance (yeast gene YLR415C): 1.0
The level of expressed mRNA in the presence of chemical substance/The level of expressed mRNA in the absence of chemical substance (yeast gene YLR421C, incubated two hours with substance): 1.6
The level of expressed mRNA in the presence of chemical substance/The level of expressed mRNA in the absence of chemical substance (yeast gene YLR427W): 2.5
The level of expressed mRNA in the presence of chemical substance/The level of expressed mRNA in the absence of chemical substance (yeast gene YLR460C): 0.7
The level of expressed mRNA in the presence of chemical substance/The level of expressed mRNA in the absence of chemical substance (yeast gene YML013W): 1.2
The level of expressed mRNA in the presence of chemical substance/The level of expressed mRNA in the absence of chemical substance (yeast gene YML029W): 2.0
The level of expressed mRNA in the presence of chemical substance/The level of expressed mRNA in the absence of chemical substance (yeast gene YML041C): 1.2
The level of expressed mRNA in the presence of chemical substance/The level of expressed mRNA in the absence of chemical substance (yeast gene YML079W): 1.6
The level of expressed mRNA in the presence of chemical substance/The level of expressed mRNA in the absence of chemical substance (yeast gene YMR068W): 1.4
The level of expressed mRNA in the presence of chemical substance/The level of expressed mRNA in the absence of chemical substance (yeast gene YMR071C): 1.3
The level of expressed mRNA in the presence of chemical substance/The level of expressed mRNA in the absence of chemical substance (yeast gene YMR102C, incubated two hours with chemical substance): 4.4
The level of expressed mRNA in the presence of chemical substance/The level of expressed mRNA in the absence of chemical substance (yeast gene YMR160W): 1.6
The level of expressed mRNA in the presence of chemical substance/The level of expressed mRNA in the absence of chemical substance (yeast gene YMR258C, incubated two hours with substance): 1.6
The level of expressed mRNA in the presence of chemical substance/The level of expressed mRNA in the absence of chemical substance (yeast gene YMR315W): 2.5
The level of expressed mRNA in the presence of chemical substance/The level of expressed mRNA in the absence of chemical substance (yeast gene YNL026W): 1.7
The level of expressed mRNA in the presence of chemical substance/The level of expressed mRNA in the absence of chemical substance (yeast gene YNL058C): 0.6
The level of expressed mRNA in the presence of chemical substance/The level of expressed mRNA in the absence of chemical substance (yeast gene YNL063W): 1.5
The level of expressed mRNA in the presence of chemical substance/The level of expressed mRNA in the absence of chemical substance (yeast gene YNL176C): 0.6
The level of expressed mRNA in the presence of chemical substance/The level of expressed mRNA in the absence of chemical substance (yeast gene YNL194C): 1.5
The level of expressed mRNA in the presence of chemical substance/The level of expressed mRNA in the absence of chemical substance (yeast gene YNL200C): 1.1
The level of expressed mRNA in the presence of chemical substance/The level of expressed mRNA in the absence of chemical substance (yeast gene YNL253W): 1.1
The level of expressed mRNA in the presence of chemical substance/The level of expressed mRNA in the absence of chemical substance (yeast gene YNL276C): 1.5
The level of expressed mRNA in the presence of chemical substance/The level of expressed mRNA in the absence of chemical substance (yeast gene YNL300W, incubated two hours with chemical substance): 0.7
The level of expressed mRNA in the presence of chemical substance/The level of expressed mRNA in the absence of chemical substance (yeast gene YNR051C): 2.1
The level of expressed mRNA in the presence of chemical substance/The level of expressed mRNA in the absence of chemical substance (yeast gene YOL026C): 1.2
The level of expressed mRNA in the presence of chemical substance/The level of expressed mRNA in the absence of chemical substance (yeast gene YOL031C): 2.4
The level of expressed mRNA in the presence of chemical substance/The level of expressed mRNA in the absence of chemical substance (yeast gene YOL084W, incubated two hours with substance): 6.4
The level of expressed mRNA in the presence of chemical substance/The level of expressed mRNA in the absence of chemical substance (yeast gene YOL101C): 0.2
The level of expressed mRNA in the presence of chemical substance/The level of expressed mRNA in the absence of chemical substance (yeast gene YOR022C): 1.7
The level of expressed mRNA in the presence of chemical substance/The level of expressed mRNA in the absence of chemical substance (yeast gene YOR087W): 1.2
The level of expressed mRNA in the presence of chemical substance/The level of expressed mRNA in the absence of chemical substance (yeast gene YOR138C): 1.8
The level of expressed mRNA in the presence of chemical substance/The level of expressed mRNA in the absence of chemical substance (yeast gene YOR253W): 0.5
The level of expressed mRNA in the presence of chemical substance/The level of expressed mRNA in the absence of chemical substance (yeast gene YOR267C): 1.4
The level of expressed mRNA in the presence of chemical substance/The level of expressed mRNA in the absence of chemical substance (yeast gene YOR338W): 1.4
The level of expressed mRNA in the presence of chemical substance/The level of expressed mRNA in the absence of chemical substance (yeast gene YOR391C): 2.3
The level of expressed mRNA in the presence of chemical substance/The level of expressed mRNA in the absence of chemical substance (yeast gene YPL005W): 1.2
The level of expressed mRNA in the presence of chemical substance/The level of expressed mRNA in the absence of chemical substance (yeast gene YPL087W, incubated two hours with chemical substance): 4.4
The level of expressed mRNA in the presence of chemical substance/The level of expressed mRNA in the absence of chemical substance (yeast gene YPL150W): 2.1
The level of expressed mRNA in the presence of chemical substance/The level of expressed mRNA in the absence of chemical substance (yeast gene YPL152W): 1.4
The level of expressed mRNA in the presence of chemical substance/The level of expressed mRNA in the absence of chemical substance (yeast gene YPL168W): 1.0
The level of expressed mRNA in the presence of chemical substance/The level of expressed mRNA in the absence of chemical substance (yeast gene YPL180W): 1.5
The level of expressed mRNA in the presence of chemical substance/The level of expressed mRNA in the absence of chemical substance (yeast gene YPL188W): 0.9
The level of expressed mRNA in the presence of chemical substance/The level of expressed mRNA in the absence of chemical substance (yeast gene YPL221W): 1.0
The level of expressed mRNA in the presence of chemical substance/The level of expressed mRNA in the absence of chemical substance (yeast gene YPL225W): 0.8
The level of expressed mRNA in the presence of chemical substance/The level of expressed mRNA in the absence of chemical substance (yeast gene YPL280W): 2.4
The level of expressed mRNA in the presence of chemical substance/The level of expressed mRNA in the absence of chemical substance (yeast gene YPR049C): 1.6
The level of expressed mRNA in the presence of chemical substance/The level of expressed mRNA in the absence of chemical substance (yeast gene YPR146C): 1.3
The level of expressed mRNA in the presence of chemical substance/The level of expressed mRNA in the absence of chemical substance (yeast gene YPR148C): 1.2
The level of expressed mRNA in the presence of chemical substance/The level of expressed mRNA in the absence of chemical substance (yeast gene YPR158W, incubated two hours with substance): 1.6
The level of expressed mRNA in the presence of chemical substance/The level of expressed mRNA in the absence of chemical substance (yeast gene YPR172W): 1.3
